This is an account of results in ChEMBL document CHEMBL1221220, “Transport and signaling via the amino acid binding site of the yeast Gap1 amino acid transceptor” (Nat Chem Biol, 2009).

Structures are written as SMILES. Non-standard residues stand in square brackets, D forms with d. Residues, ends and D or L forms follow the SMILES beside them. Hyp = O=C(O)[C@@H]1C[C@@H](O)CN1; Cit = NC(=O)NCCC[C@H](N)C(=O)O; NMeL = CN[C@@H](CC(C)C)C(=O)O; Sar = CNCC(=O)O Bounds are passed on as bounds.
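Further: amino acid uptake through Gap1 in nitrogen-starved wild-type yeast cells, measured after 60 s and expressed relative to L-citrulline.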

The target of this test is T1, General amino-acid permease GAP1 (Saccharomyces cerevisiae) (UniProt P19145).
T1 sequence (whole entry): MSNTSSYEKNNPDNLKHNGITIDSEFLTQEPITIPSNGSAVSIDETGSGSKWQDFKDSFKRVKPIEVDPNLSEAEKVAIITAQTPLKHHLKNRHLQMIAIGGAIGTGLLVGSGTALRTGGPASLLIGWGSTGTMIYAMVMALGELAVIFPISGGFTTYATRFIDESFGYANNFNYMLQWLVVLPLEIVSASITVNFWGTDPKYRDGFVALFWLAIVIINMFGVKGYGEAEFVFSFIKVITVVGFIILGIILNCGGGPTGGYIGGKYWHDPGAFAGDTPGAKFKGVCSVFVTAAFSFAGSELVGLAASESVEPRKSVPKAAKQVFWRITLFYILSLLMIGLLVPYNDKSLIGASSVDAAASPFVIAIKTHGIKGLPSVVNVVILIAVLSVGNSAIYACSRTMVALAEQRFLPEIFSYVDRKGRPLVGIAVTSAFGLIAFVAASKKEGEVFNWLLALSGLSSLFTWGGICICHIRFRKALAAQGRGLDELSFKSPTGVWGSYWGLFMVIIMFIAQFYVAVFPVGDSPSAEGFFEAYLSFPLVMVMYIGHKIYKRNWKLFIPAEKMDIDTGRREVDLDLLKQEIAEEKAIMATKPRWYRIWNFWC
To be noted: sigma1278b, at 5 mM.
Description: Inhibition of nitrogen-starved wild type sigma1278b yeast Gap1-mediated amino acid uptake at 5 mM after 60 secs relative to L-citrulline
As for `COC(=O)[C@@H](N)Cc1ccc(O)cc1`, the inhibition (as a rule, the share of the control response that was lost under treatment) was under 15%.

In turn, `CC[C@H](C)[C@H](N)C(=O)N[C@@H](CC(C)C)C(=O)O` (H-Ile-Leu-OH) registered an inhibition of over 30%.

`NCC(=O)NCC(=O)N1CCC[C@H]1C(=O)O` (H-Gly-Gly-Pro-OH) showed an inhibition of under 15%.

For the compound `O=C(O)[C@H]1CNCCN1`, the inhibition was under 15%.

Regarding `N[C@@H](Cc1ccc(O)cc1)C(=O)N[C@@H](Cc1ccc(O)cc1)C(=O)NCC(=O)O` (H-Tyr-Tyr-Gly-OH), the inhibition is under 15%.

Take `COC(=O)[C@@H](N)CCCCN`: the inhibition is under 15%.

`CSCC[C@H](NC(=O)[C@@H](N)Cc1ccc(O)cc1)C(=O)NCC(=O)O` (H-Tyr-Met-Gly-OH): the inhibition was under 15%.

Turning to `CC(C)C[C@H](NC(=O)CN)C(N)=O`, the inhibition is under 15%.

With `C[C@@H](O)C(NC(=O)CN)C(=O)O` (mixture of isomers), the inhibition came out at 15%.

The compound `CN(CC(=O)O)C(=O)CN` (H-Gly-[Sar]-OH) gave an inhibition of under 15%.

`O=C(O)[C@@H]1CCCN1C(=O)[C@@H]1C[C@@H](O)CN1C(=O)[C@@H]1CCCN1` (H-Pro-[Hyp]-Pro-OH) displayed an inhibition of under 15%.

The compound `N[C@@H](Cc1cnc[nH]1)C(=O)N[C@@H](CCC(=O)O)C(=O)O` (H-His-Glu-OH) displayed an inhibition of under 15%.

The compound `CSCC[C@@H](N)C(=O)NCC(=O)O` (H-[dM]-Gly-OH) displayed an inhibition of under 15%.

`CC(C)C[C@H](NC(=O)CN)C(=O)N1C[C@H](O)C[C@H]1C(=O)O` (H-Gly-Leu-[Hyp]-OH) gave an inhibition of under 15%.

`NC(=O)C(N)Cc1c[nH]c2ccccc12` (racemic) came in with an inhibition of under 15%.

The compound `CSCC[C@H](NC(=O)[C@@H](N)Cc1ccccc1)C(=O)O` (H-Phe-Met-OH) gave an inhibition of under 15%.

`CC(=O)N[C@H](C(=O)O)[C@@H](C)OC(C)(C)C` displayed an inhibition of under 15%.

For `N[C@@H](Cc1cnc[nH]1)C(=O)N[C@@H](Cc1ccccc1)C(=O)O` (H-His-Phe-OH), the inhibition is under 15%.

`CC(C)(C)OC(=O)N[C@@H](CCC(=O)O)C(=O)O` registered an inhibition of under 15%.

`CSCC[C@H](NC(=O)[C@H](CC(C)C)NC(=O)CN)C(=O)O` (H-Gly-Leu-Met-OH) returned an inhibition of under 15%.

`C[C@H](N)C(=O)OC(C)(C)C` yielded an inhibition of under 15%.

As for `N[C@@H]1CONC1=O`, the inhibition was under 15%.

`N[C@@H](Cc1cnc[nH]1)C(=O)NCCS(=O)(=O)O` displayed an inhibition of under 15%.

As to `N[C@@H](CCC(=O)O)C(=O)N[C@@H](CCC(=O)O)C(=O)O` (H-Glu-Glu-OH), the inhibition is under 15%.

`CC(C)[C@H](N)C(=O)N[C@@H](CO)C(=O)O` (H-Val-Ser-OH) registered an inhibition of under 15%.

For the compound `CC(C)C(NC(=O)CN)C(=O)O` (stereo in doubt), the inhibition is under 15%.

For `CC(C)C[C@H](NC(=O)[C@H](CC(C)C)NC(=O)[C@@H](N)C(C)C)C(=O)O` (H-Val-Leu-Leu-OH), the inhibition was under 15%.

On to `CCCC(NC(=O)C(C)N)C(=O)O` (racemic), for which the inhibition is under 15%.

Regarding `CSCC[C@H](NC(=O)[C@H](C)N)C(=O)O` (H-Ala-Met-OH), the inhibition was over 30%.

Compound `COC(=O)[C@@H](N)CCSC` yielded an inhibition of under 15%.

In the case of `CC(=O)NCCCC[C@H](NC(C)=O)C(=O)O`, the inhibition was under 15%.

Turning to `COC(=O)[C@@H]1C[C@@H](O)CN1`, the inhibition is under 15%.

As to `O=C(N[C@@H](CO)C(=O)O)OCc1ccccc1`, the inhibition was under 15%.

With `N[C@@H](CC(=O)O)C(=O)N[C@@H](CO)C(=O)O` (H-Asp-Ser-OH), the inhibition was under 15%.

Compound `CC(C)(C)OC(=O)N[C@@H](Cc1cnc[nH]1)C(=O)O` gave an inhibition of under 15%.

In turn, `NCC(=O)N[C@@H](Cc1cnc[nH]1)C(=O)O` (H-Gly-His-OH) came in with an inhibition of under 15%.

Regarding `CSCC[C@H](N)C(=O)N[C@@H](C)C(=O)O` (H-Met-Ala-OH), the inhibition is under 15%.

In turn, `NCC(=O)N[C@@H](Cc1ccccc1)C(=O)O` displayed an inhibition of over 30%.

In turn, `NCC(=O)NCCCC(=O)O` gave an inhibition of under 15%.

`CSCC[C@H](N)C(=O)NCC(=O)NCC(=O)O` (H-Met-Gly-Gly-OH): the inhibition is under 15%.

`CSCC[C@H](NC(=O)[C@H](CC(C)C)NC(=O)CN)C(N)=O` (H-Gly-Leu-Met-NH2): the inhibition was under 15%.

As to `CC(C)C[C@@H](NC(=O)CNC(=O)CN)C(=O)O`, the inhibition was under 15%.

`CC[C@H](C)[C@H](NC(=O)[C@H](C)N)C(=O)O` (H-Ala-Ile-OH) returned an inhibition of 15%.

For the compound `NCC(=O)NCC(=O)N[C@@H](CCC(=O)O)C(=O)O` (H-Gly-Gly-Glu-OH), the inhibition was under 15%.

`COC(=O)CC[C@H](NC(=O)OC(C)(C)C)C(=O)O` came in with an inhibition of under 15%.

In turn, `C[C@H](NC(=O)[C@H](Cc1cnc[nH]1)NC(=O)CN)C(=O)O` (H-Gly-His-Ala-OH) came in with an inhibition of under 15%.

On to `CC(C)C[C@H](N)C(=O)N[C@@H](C)C(=O)O` (H-Leu-Ala-OH), for which the inhibition is under 15%.

As to `NCC(=O)N[C@@H](Cc1c[nH]c2ccccc12)C(=O)O` (H-Gly-Trp-OH), the inhibition was over 30%.

Compound `CSCC[C@H](N)C(=O)N[C@@H](CC(=O)O)C(=O)O` (H-Met-Asp-OH) yielded an inhibition of under 15%.

Consider `COC(=O)[C@H](CO)NC(=O)OC(C)(C)C`, for which the inhibition was under 15%.

`NCC(=O)N[C@@H](CO)C(=O)NCCS(=O)(=O)O` came in with an inhibition of under 15%.

The compound `N[C@@H](Cc1ccc(O)cc1)C(=O)NCC(=O)O` returned an inhibition of under 15%.

Take `C[C@@H](O)[C@H](N)C(=O)N[C@@H](CCCCN)C(=O)N[C@@H](Cc1ccc(O)cc1)C(=O)O` (H-Thr-Lys-Tyr-OH): the inhibition was under 15%.

For the compound `NCC(=O)N1CCC[C@H]1C(=O)O` (H-Gly-Pro-OH), the inhibition was under 15%.

As to `NCCC(N)=O`, the inhibition is under 15%.

Regarding `CC(C)[C@H](NC(=O)[C@@H](N)CCCNC(N)=O)C(=O)O` (H-[Cit]-Val-OH), the inhibition was under 15%.

`CN[C@@H](CC(C)C)C(=O)NCC(=O)O` (H-[NMeL]-Gly-OH) came in with an inhibition of under 15%.

For the compound `NC(=O)[C@@H](N)Cc1c[nH]c2ccccc12`, the inhibition is under 15%.

For `CSCC[C@H](NC(=O)[C@@H](N)Cc1ccc(O)cc1)C(=O)O` (H-Tyr-Met-OH), the inhibition is under 15%.

For the compound `COC(=O)[C@@H](N)Cc1c[nH]c2ccccc12`, the inhibition was under 15%.

`CC(C)[C@@H](NC(=O)OC(C)(C)C)C(=O)O` yielded an inhibition of under 15%.

Compound `N[C@@H](Cc1ccc(O)cc1)C(=O)NCC(=O)NCC(=O)O` (H-Tyr-Gly-Gly-OH) displayed an inhibition of under 15%.

As to `CC[C@H](C)[C@H](N)C(N)=O`, the inhibition was under 15%.

For `N[C@@H](Cc1c[nH]cn1)C(=O)N[C@@H](Cc1c[nH]cn1)C(=O)O`, the inhibition is 15%.

Consider `NCCCC[C@H](NC(=O)[C@@H](N)CCCCN)C(=O)O`, for which the inhibition was under 15%.

Compound `CC(C)C[C@H](NC(=O)CN)C(=O)O` came in with an inhibition of under 15%.

Regarding `NC(=O)[C@H](Cc1ccccc1)NC(=O)[C@@H](N)CC(=O)O` (H-Asp-Phe-NH2), the inhibition was under 15%.

Compound `CCOC(=O)[C@@H](N)Cc1ccccc1` registered an inhibition of under 15%.

Regarding `CC(C)C[C@H](NC(=O)[C@@H]1C[C@@H](O)CN1)C(=O)O` (H-[Hyp]-Leu-OH), the inhibition was under 15%.

Turning to `CC(C)CC(NC(=O)C(C)N)C(=O)O` (racemic), the inhibition came to 15%.

`NCC(=O)NCC(N)=O` returned an inhibition of under 15%.

`CC(NC(=O)CN)C(=O)O` (racemic) displayed an inhibition of 15%.

In turn, `CSCC[C@H](N)C(=O)N[C@@H](CCC(=O)O)C(=O)O` (H-Met-Glu-OH) registered an inhibition of under 15%.

The compound `NCC(=O)NCCC(=O)O` came in with an inhibition of under 15%.

Compound `CC(C)(C)OC(=O)N[C@@H](CCCNC(=N)N)C(=O)O` came in with an inhibition of under 15%.

Consider `CC(C)(C)OC(=O)NC(Cc1ccc(O)cc1)C(=O)O` (stereo in doubt), for which the inhibition was under 15%.

Consider `N[C@@H](CO)C(=O)NCC(=O)O` (H-Ser-Gly-OH), for which the inhibition was under 15%.

Consider `CC(C)[C@H](N)C(=O)N[C@H](C(=O)N[C@@H](C(=O)O)C(C)C)C(C)C` (H-Val-Val-[dV]-OH), for which the inhibition is under 15%.

Regarding `C[C@H](N)C(=O)N[C@@H](CCC(=O)O)C(N)=O` (H-Ala-Glu-NH2), the inhibition is under 15%.

The compound `CC(C)C[C@@H](NC(=O)OC(C)(C)C)C(=O)O` returned an inhibition of under 15%.

`CSCC[C@H](N)C(=O)N[C@@H](CC(C)C)C(=O)O` (H-Met-Leu-OH): the inhibition is under 15%.

As for `CC(C)CC(N)C(=O)NC(CC(C)C)C(=O)O` (racemic), the inhibition was over 30%.

Take `NCC(=O)N[C@@H](CC(=O)O)C(=O)O` (H-Gly-Asp-OH): the inhibition is under 15%.

As for `NCC(N)=O`, the inhibition was under 15%.

In the case of `CC[C@H](C)[C@H](NC(=O)OCc1ccccc1)C(=O)O`, the inhibition amounted to 15%.

`CC(C)(C)OC(=O)N[C@@H](Cc1ccccc1)C(=O)O` came in with an inhibition of over 30%.

Compound `CC(C)C[C@H](NC(=O)CNC(=O)[C@@H](N)CC(C)C)C(=O)O` (H-Leu-Gly-Leu-OH) came in with an inhibition of under 15%.

In turn, `COC(=O)[C@@H]1C=CCN1` registered an inhibition of under 15%.
